In patent US12331022B2, “Spiropiperidine allosteric modulators of nicotinic acetylcholine receptors” (Merck Sharp & Dohme LLC, priority 2019, dated 2025):
pEC50: −log10 of the molar value. Read-outs that look alike come from different tables or passages of the source.

Target: T1, human α7 nAChR (Homo sapiens, UniProt P36544)
T1 construct: host or cells: HEK
Assay: Automated patch-clamp electrophysiology functional assay (Assay A)
Format: cell-based
Settings: HEK cell line stably expressing human RIC-3 and human α7, IonFlux HT whole-cell population patch, with or without 40 μM acetylcholine
How it was run: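 Whole-cell population patch clamp at −60 mV, room temperature, on HEK cells stably co-expressing human α7 and RIC-3; compounds tested at three ascending concentrations per recording, alone (agonism) or with 40 μM acetylcholine (potentiation). Currents normalised to an initial 1 s 40 μM acetylcholine response; EC50 from concentration series.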

T1 sequence (P36544 23-502): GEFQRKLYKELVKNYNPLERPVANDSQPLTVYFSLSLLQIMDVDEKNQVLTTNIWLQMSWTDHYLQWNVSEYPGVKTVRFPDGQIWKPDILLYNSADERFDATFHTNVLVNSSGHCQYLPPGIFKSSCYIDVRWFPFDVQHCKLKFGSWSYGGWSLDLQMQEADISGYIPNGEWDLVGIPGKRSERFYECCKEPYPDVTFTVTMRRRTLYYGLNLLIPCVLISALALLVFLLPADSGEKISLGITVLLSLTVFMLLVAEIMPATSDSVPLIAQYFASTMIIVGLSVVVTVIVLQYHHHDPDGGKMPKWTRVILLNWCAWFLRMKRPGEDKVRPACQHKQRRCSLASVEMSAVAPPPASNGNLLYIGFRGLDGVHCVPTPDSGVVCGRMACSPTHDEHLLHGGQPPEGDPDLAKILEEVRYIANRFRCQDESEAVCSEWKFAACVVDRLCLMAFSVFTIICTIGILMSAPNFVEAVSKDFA

SMILES: NS(=O)(=O)N1CCC2(CC1)C[C@@H]2COc1cccc(OCC(F)(F)F)n1 [Example A38, (1S)-1-({[6-(2,2,2-trifluoroethoxy)pyridin-2-yl]oxy}methyl)-6-azaspiro[2.5]octane-6-sulfonamide]
- pEC50 (read-out: α7 nAChR EC50): 6.14
- pEC50 (read-out: α7 nAChR Potency): 5.30 to 6.30

SMILES: CS(=O)(=O)c1cccc(OC[C@@H]2CC23CCN(S(N)(=O)=O)CC3)n1 [Example A45, (1R)-1-({[6-(methylsulfonyl)pyridin-2-yl]oxy}methyl)-6-azaspiro[2.5]octane-6-sulfonamide]
- pEC50 (read-out: α7 nAChR Potency): 4.30 to 5.30

SMILES: CN1CCN(c2cccc(OC[C@@H]3CC34CCN(S(N)(=O)=O)CC4)n2)CC1 [Example A46, (1R)-1-({[6-(4-methylpiperazin-1-yl)pyridin-2-yl]oxy}methyl)-6-azaspiro[2.5]octane-6-sulfonamide]
- pEC50 (read-out: α7 nAChR Potency): 5.30 to 6.30

SMILES: N#Cc1cccc(OC[C@@H]2CC23CCN(S(N)(=O)=O)CC3)n1 [Example A47, (1R)-1-{[(6-cyanopyridin-2-yl)oxy]methyl}-6-azaspiro[2.5]octane-6-sulfonamide]
- pEC50 (read-out: α7 nAChR EC50): 5.96
- pEC50 (read-out: α7 nAChR Potency): 5.30 to 6.30

SMILES: Cc1cccc(OC[C@@H]2CC23CCN(S(N)(=O)=O)CC3)n1 [Example A48, (1R)-1-{[(6-methylpyridin-2-yl)oxy]methyl}-6-azaspiro[2.5]octane-6-sulfonamide]
- pEC50 (read-out: α7 nAChR EC50): 5.77
- pEC50 (read-out: α7 nAChR Potency): 5.30 to 6.30

SMILES: NS(=O)(=O)N1CCC2(CC1)C[C@H]2COc1cccc(C2CC2)n1 [Example A49]
- pEC50 (read-out: α7 nAChR EC50): 6.55
- pEC50 (read-out: α7 nAChR Potency): 6.30 to 7.00

SMILES: Cc1ccn(-c2cccc(OC[C@@H]3CC34CCN(S(N)(=O)=O)CC4)n2)n1 [Example A50, (1R)-1-({[6-(3-methyl-1H-pyrazol-1-yl)pyridin-2-yl]oxy}methyl)-6-azaspiro[2.5]octane-6-sulfonamide]
- pEC50 (read-out: α7 nAChR EC50): 6.60
- pEC50 (read-out: α7 nAChR Potency): 6.30 to 7.00

SMILES: COc1cccc(OC[C@@H]2CC23CCN(S(N)(=O)=O)CC3)n1 [Example A51, (1R)-1-{[(6-methoxypyridin-2-yl)oxy]methyl}-6-azaspiro[2.5]octane-6-sulfonamide]
- pEC50 (read-out: α7 nAChR EC50): 6.24
- pEC50 (read-out: α7 nAChR Potency): 5.30 to 6.30

SMILES: CC(C)(O)c1cccc(OC[C@@H]2CC23CCN(S(N)(=O)=O)CC3)n1 [Example A52, (1R)-1-({[6-(2-hydroxypropan-2-yl)pyridin-2-yl]oxy}methyl)-6-azaspiro[2.5]octane-6-sulfonamide]
- pEC50 (read-out: α7 nAChR EC50): 6.32
- pEC50 (read-out: α7 nAChR Potency): 6.30 to 7.00

SMILES: CC(C)c1cccc(OC[C@@H]2CC23CCN(S(N)(=O)=O)CC3)n1 [Example A53, (1R)-1-({[6-(propan-2-yl)pyridin-2-yl]oxy}methyl)-6-azaspiro[2.5]octane-6-sulfonamide]
- pEC50 (read-out: α7 nAChR EC50): 6.19
- pEC50 (read-out: α7 nAChR Potency): 5.30 to 6.30

SMILES: CCOc1cccc(OC[C@@H]2CC23CCN(S(N)(=O)=O)CC3)n1 [Example A54, (1R)-1-{[(6-ethoxypyridin-2-yl)oxy]methyl}-6-azaspiro[2.5]octane-6-sulfonamide]
- pEC50 (read-out: α7 nAChR EC50): 6.35
- pEC50 (read-out: α7 nAChR Potency): 6.30 to 7.00

SMILES: CC(C)(C)c1cccc(OC[C@@H]2CC23CCN(S(N)(=O)=O)CC3)n1 [Example A55, (1R)-1-{[(6-tert-butylpyridin-2-yl)oxy]methyl}-6-azaspiro[2.5]octane-6-sulfonamide]
- pEC50 (read-out: α7 nAChR Potency): 5.30 to 6.30

SMILES: CC(F)(F)c1cccc(OC[C@@H]2CC23CCN(S(N)(=O)=O)CC3)n1 [Example A56, (1R)-1-({[6-(1,1-difluoroethyl)pyridin-2-yl]oxy}methyl)-6-azaspiro[2.5]octane-6-sulfonamide]
- pEC50 (read-out: α7 nAChR EC50): 6.13
- pEC50 (read-out: α7 nAChR Potency): 5.30 to 6.30

SMILES: NS(=O)(=O)N1CCC2(CC1)C[C@H]2COc1cccc(-c2ccccc2)n1 [Example A57, (1R)-1-{[(6-phenylpyridin-2-yl)oxy]methyl}-6-azaspiro[2.5]octane-6-sulfonamide]
- pEC50 (read-out: α7 nAChR EC50): 7.16
- pEC50 (read-out: α7 nAChR Potency): ≥ 7.00

SMILES: NS(=O)(=O)N1CCC2(CC1)C[C@H]2COc1cccc(-c2ccncc2)n1 [Example A58, (1R)-1-[(2,4′-bipyridin-6-yloxy)methyl]-6-azaspiro[2.5]octane-6-sulfonamide]
- pEC50 (read-out: α7 nAChR Potency): 5.30 to 6.30

SMILES: COc1ccc(Cl)cc1NC[C@@H]1C(F)(F)C12CCN(S(N)(=O)=O)CC2 [Example A59, (2R)-2-{[(5-chloro-2-methoxyphenyl)amino]methyl}-1,1-difluoro-6-azaspiro[2.5]octane-6-sulfonamide]
- pEC50 (read-out: α7 nAChR EC50): 7.66
- pEC50 (read-out: α7 nAChR Potency): ≥ 7.00

SMILES: Cc1ccc(C)c(NC[C@@H]2C(F)(F)C23CCN(S(N)(=O)=O)CC3)c1 [Example A60, (2R)-2-{[(2,5-dimethylphenyl)amino]methyl}-1,1-difluoro-6-azaspiro[2.5]octane-6-sulfonamide]
- pEC50 (read-out: α7 nAChR EC50): 7.96
- pEC50 (read-out: α7 nAChR Potency): ≥ 7.00

SMILES: COc1ccccc1NC(=O)[C@@H]1CC12CCN(S(N)(=O)=O)CC2 [Example B1, (1R)—N-(2-methoxyphenyl)-6-sulfamoyl-6-azaspiro[2.5]octane-1-carboxamide]
- pEC50 (read-out: α7 nAChR EC50): 5.85
- pEC50 (read-out: α7 nAChR Potency): 5.30 to 6.30

SMILES: NS(=O)(=O)N1CCC2(CC1)C[C@H]2C(=O)Nc1cccc(Cl)c1 [Example B2, (1R)—N-(3-chlorophenyl)-6-sulfamoyl-6-azaspiro[2.5]octane-1-carboxamide]
- pEC50 (read-out: α7 nAChR Potency): 5.30 to 6.30

SMILES: COc1ccc(Cl)cc1NC(=O)[C@H]1C(F)(F)C12CCN(S(N)(=O)=O)CC2 [Example B3, (1S)—N-(5-chloro-2-methoxyphenyl)-2,2-difluoro-6-sulfamoyl-6-azaspiro[2.5]octane-1-carboxamide]
- pEC50 (read-out: α7 nAChR EC50): 5.85
- pEC50 (read-out: α7 nAChR Potency): 5.30 to 6.30
